Our source for the IC50 values is ChEMBL document CHEMBL1136596, “Four novel bis-(naphtho-gamma-pyrones) isolated from Fusarium species as inhibitors of HIV-1 integrase” (Bioorg Med Chem Lett, 2003).

Test [1] concerns the target T1, Human immunodeficiency virus type 1 integrase (Human immunodeficiency virus 1, UniProt Q7ZJM1). Briefly: Inhibition of HIV-1 integrase in strand transfer assay.
For test [2], the target named is T1, Human immunodeficiency virus type 1 integrase. Briefly: Inhibition of HIV-1 integrase in coupled transfer assay.
The test system of test [3] is Human immunodeficiency virus 1. Briefly: Viral protection was determined in a 24 hr HIV-1 viral infectivity assay. The class given is functional, organism-based.

T1 sequence (Q7ZJM1 whole entry): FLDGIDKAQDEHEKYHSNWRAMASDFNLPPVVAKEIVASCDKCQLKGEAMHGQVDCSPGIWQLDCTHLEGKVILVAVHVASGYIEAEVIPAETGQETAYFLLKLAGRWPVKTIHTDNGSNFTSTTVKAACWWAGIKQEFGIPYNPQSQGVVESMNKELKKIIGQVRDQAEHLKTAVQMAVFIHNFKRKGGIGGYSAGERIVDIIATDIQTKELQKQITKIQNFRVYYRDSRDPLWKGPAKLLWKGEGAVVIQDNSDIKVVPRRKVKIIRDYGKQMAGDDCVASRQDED

The IC50 is the midpoint of a concentration-inhibition curve. Low readings indicate greater potency, high ones weaker potency. Turning to `COc1cc(OC)c2c(OC)c3c(cc2c1-c1c(OC)cc(OC)c2c(OC)c4c(cc12)OC(C)C(C)C4=O)OC(C)C(C)C3=O` (configuration not stated), the IC50 is above 100 µM in test [1] and 60 µM in test [2].

Turning to `C[C@@H]1Oc2cc3c(-c4c(O)cc(O)c5c(O)c6c(cc45)O[C@H](C)[C@@H](C)C(=O)O6)c(O)cc(O)c3c(O)c2C(=O)[C@@H]1C`, the IC50 in test [1] came to 9 µM; in test [2], 3 µM.

For `COc1cc(O)c2c(OC)c3c(cc2c1-c1c(OC)cc(OC)c2c(OC)c4c(cc12)OC(C)C(C)C4=O)OC(C)C(C)C3=O` (configuration not stated), the values for the IC50 in test [1] and in test [2] were above 100 µM and 40 µM, respectively.

Take `COc1cc(O)c2c(OC)c3c(cc2c1-c1c(O)cc(OC)c2c(OC)c4c(cc12)OC(C)C(C)C4=O)OC(C)C(C)C3=O` (configuration not stated): the IC50 is above 100 µM in test [1] and 8 µM in test [2].

Take `CC(=O)Oc1cc(OC(C)=O)c2c(OC(C)=O)c3c(cc2c1-c1c(OC(C)=O)cc(OC(C)=O)c2c(OC(C)=O)c4c(cc12)OC(C)C(C)C4=O)OC(C)C(C)C3=O` (configuration not stated): the IC50 in test [1] is above 100 µM; in test [2] it was 50 µM.

Regarding `Cc1oc2cc3c(-c4c(O)cc(O)c5c(O)c6c(cc45)O[C@H](C)[C@H](C)C6=O)c(O)cc(O)c3c(O)c2c(=O)c1C`, the results for the IC50 in test [1] and in test [2] were 4 µM and 1 µM, respectively.

As for `COc1cc(O)c2c(O)c3c(cc2c1-c1c(OC)cc(OC)c2c(OC)c4c(cc12)OC(C)C(C)C4=O)OC(C)C(C)C3=O` (stereo in doubt; 9d), the IC50 in test [1] was above 100 µM; in test [2] it was 80 µM.

Regarding `COc1cc(O)c2c(O)c3c(cc2c1-c1c(OC)cc(OC)c2c(OC)c4c(cc12)OC(C)C(C)C4=O)OC(C)C(C)C3=O` (stereo in doubt; 9e), the IC50 in test [1] was above 100 µM; in test [2] it was 40 µM.

For `CC1Oc2cc3c(-c4c(O)cc(O)c5c(O)c6c(cc45)OC(C)C(C)C6=O)c(O)cc(O)c3c(O)c2C(=O)C1C` (stereo in doubt; form 1), the IC50 came out at 12 µM in test [1]; 3 µM in test [3] (Human immunodeficiency virus 1, 24 h); 2 µM in test [2].

`CC1Oc2cc3c(-c4c(O)cc(O)c5c(O)c6c(cc45)OC(C)C(C)C6=O)c(O)cc(O)c3c(O)c2C(=O)C1C` (stereo in doubt; form 2): the IC50 in test [1] came to 12 µM; in test [3] it was 2 µM; in test [2], 2 µM.
